Data: US20250041302A1, “PROLYL HYDROXYLASE DOMAIN INHIBITOR FOR TREATING HEMORRHAGIC OR BURN SHOCK” (THE GOVERNMENT OF THE UNITED STATES, AS REPRESENTED BY THE …, priority 2022, published 2025)
“Also recorded” adds a separate entry of the source.

What was measured:
[1] = test system: rats with polytrauma and hemorrhagic shock; assay: Oral PHDi prior to polytrauma/hemorrhage, pilot study (FIG. 3); format: in vivo, Sprague-Dawley rats
Method: FIG. 3. The effect of PHDi prior to polytrauma/hemorrhage on lactate level. PHDi (MK-8617, 1 mg/kg) or vehicle was orally applied in rats prior to trauma (n=3-4/group). The lactate in whole blood samples were collected at baseline (BSL), shed hemorrhage blood (HEM), 2- and 4 hours after trauma and measured by iSTAT. […] Values represent as means±SEM.
PHDi (MK-8617, 500 microgram per rat) was orally applied prior to trauma, and the lactate (measured by iSTAT) was measured at baseline, 2 and 4 hours after trauma.
Model-1, acute sub-lethal hemorrhagic shock with polytrauma (40% hemorrhage, fast speed hemorrhage at >1 ml/min, target MAP at 35-40 mmHg for 30 min): This model has intensive tissue damage and transient compensated hemorrhagic shock, and the animals survived for 4 hours after trauma without resuscitation or any intervention. The death occurs after 4 hours after trauma.
Briefly, Sprague-Dawley rats (350-450 gram) were anesthetized with isoflurane/100% oxygen through a nosecone and allowed to breathe spontaneously. Cannulas were placed in the left femoral artery and vein for measurement of arterial blood pressure and to obtain vascular access (blood draw and resuscitation and drug administration) respectively. Polytrauma was induced by laparotomy, crush injury to the small intestines, the left and medial liver lobes, and the right leg skeletal muscle and by fracture of the right femur. In detail, a midline incision was made through the abdominal skin and underlying muscle layers. A 10-cm section of small intestines was isolated just anterior to the cecum and run gently through a clamp covered with silastic tubing with a 2-mm distance between the clamps to cause a gentle crush injury. The right and medial lobes of the liver will receive three crushes to each lobe using the same clamp. The intestines and liver were replaced, and the abdominal incision was closed with sutures in two layers. To fracture the […], a modification of a 3-point impact device was used by dropping six stainless-steel balls (65 g each) stacked together, from 36 inches through a guide tube (1 inch internal diameter) to impact on a rounded aluminum blade resting on the mid-right femur with the right leg resting on two aluminum stands, one under the hip and one under the knee. A large hemostat (5 in tongs) was used to clamp the muscle of the right leg 10 times. The crush injury was intended to cause microvascular damage, as opposed to cutting, chopping, or mincing of the tissue, which would have led to uncontrolled hemorrhage. The polytrauma was performed about 10 min followed immediately by hemorrhage. […]
The lactate in whole blood samples were collected at baseline (BSL), shed hemorrhage blood (HEM), 2- and 4 hours after trauma, and the lactate was measured by iSTAT. […]

[2] = test system: polytrauma/hemorrhage rodent model; assay: Intravenous PHDi at 20 min after polytrauma/hemorrhage (FIG. 6); format: in vivo, rat
Method: FIG. 6. The effect of intravenous administration of PHDi after polytrauma/hemorrhage. PHDi (MK-8617, 1 mg/kg, n=8) or vehicle (n=7) was administered intravenously at 20 min after trauma. (FIG. 6A) Mean arterial pressure (MAP); (FIG. 6B) Lactate (hyperlactatemia); (FIG. 6C) Prothrombin time (PT, acute traumatic coagulopathy); and (FIG. 6D) Fibrinogen level.
PHDi (MK-8617, 1 mg/ml in 500 μL of 5% DMSO, 10% PEG 400, and 85% normal saline, average dose 1.26±0.05 mg/kg, n=8), or vehicle (n=7) was administered intravenously at 20 min after trauma. The surviving animals were euthanized 4 hours after trauma.

COc1ccc(C(NC(=O)c2cnc(-c3cccnn3)nc2O)c2ccc(OC)cc2)cc1 [MK-8617, N-[Bis(4-methoxyphenyl)methyl]-4-hydroxy-2-(pyridazin-3-yl)pyrimidine-5-carboxamide]
average levels of lactate attenuated as compared with vehicle ([1]; 2 and 4 hr after trauma, oral prior to trauma): about 30%
survival ([1]; 4 hours after trauma): all animals survived after 4 hours
lactate in whole blood (iSTAT) ([1]; 4 hours after trauma, MK-8617 1 mg/kg orally prior to trauma, n=4): 2.365 ± 0.733 mmol/L
rise of lactate ([1]; oral MK-8617 1 mg/kg prior to trauma, 1 mg/kg): attenuated the rise of lactate; also recorded: mitigating the elevation of lactate; also recorded: attenuates lactate levels
mean arterial pressure (MAP) compared with vehicle ([2]; after treatment, MK-8617 i.v. 1.26±0.05 mg/kg at 20 min after trauma, n=8): significantly higher
reduction in the elevation of lactate as compared with vehicle ([2]; at 60 min, i.v. at 20 min after trauma): about 30%
prothrombin time (PT, acute traumatic coagulopathy) ([2]; i.v. at 20 min after trauma): reduced the prolongation of prothrombin time
